Experimental findings from ChEMBL document CHEMBL1129553, “Synthesis and pharmacology of highly selective carboxy and phosphono isoxazole amino acid AMPA receptor antagonists” (J Med Chem, 1996) are described below.

Assay [1] addresses T1, Glutamate receptor ionotropic, AMPA (Rattus norvegicus, UniProt P19490+P19491+P19492+P19493). Nature of the assay: In vitro inhibition of [3H]CNQX binding to Ionotropic glutamate receptor AMPA. In kind it is protein-complex assay.
Assay [2] concerns the target T1, Glutamate receptor ionotropic, AMPA. Nature of the assay: In vitro inhibition of [3H]AMPA binding to Ionotropic glutamate receptor AMPA. In kind it is protein-complex assay.
Another assay addresses Glutamate NMDA receptor. Nature of the assay: In vitro inhibition of [3H]CPP binding to NMDA receptor. Type of assay: protein-complex assay.
The target of assay [3] is T1, Glutamate receptor ionotropic, AMPA. Nature of the assay: Inhibition of AMPA induced electrophysiological responses in rat cortical slices. Type of assay: functional.
For assay [4], the target named is Glutamate receptor ionotropic, kainate. Nature of the assay: In vitro inhibition of [3H]KAIN binding to Ionotropic glutamate receptor kainate. Type of assay: protein-complex assay.
The next assay is filed under the species Rattus norvegicus. Nature of the assay: Inhibitory activity against antagonism of AMPA induced responses in rat cortical slices. Type of assay: functional.

For `NC(Cc1c(OCP(=O)(O)O)noc1-c1cccs1)C(=O)O` (stereo unspecified), the IC50 in assay [1] was over 100 µM; in assay [2], over 100 µM; at Glutamate NMDA receptor it was over 100 µM; in assay [3], 360 µM; in assay [4], over 100 µM.

For the compound `CC(C)(C)Cc1onc(OCC(=O)O)c1CC(N)C(=O)O` (stereo unspecified), the IC50 in assay [1] is over 100 µM; in assay [2], over 100 µM; on Glutamate NMDA receptor it was over 100 µM; in assay [3], over 1000 µM; in assay [4], over 100 µM.

On to `NC(Cc1c(OCC(=O)O)noc1-c1ccccc1)C(=O)O` (stereo unspecified), for which the IC50 in assay [1] was over 100 µM; in assay [2], over 100 µM; at Glutamate NMDA receptor it was over 100 µM; in assay [3] it was over 1000 µM; in assay [4], over 100 µM.

`O=C(O)[C@H]1CN(CCCP(=O)(O)O)CCN1`: the IC50 in assay [2] was over 100 µM; on Glutamate NMDA receptor, 0.05 µM. In addition, the affinity in assay [3], expressed as Ki, was 1.6 µM.

Take `CCCC(CCC)c1onc(OCP(=O)(O)O)c1CC(N)C(=O)O` (stereo unspecified): the IC50 in assay [2] was over 100 µM; in assay [3], 350 µM; in assay [4], over 100 µM.

For `NC(Cc1cc(OCP(=O)(O)O)no1)C(=O)O` (stereo unspecified), the IC50 in assay [1] was over 100 µM; in assay [2] it was over 100 µM; on Glutamate NMDA receptor, over 100 µM; in assay [3], over 1000 µM; in assay [4], over 100 µM.

Regarding `O=C(O)C1Cc2c(OCP(=O)(O)O)noc2CN1` (stereo unspecified), the IC50 in assay [1] was over 100 µM; in assay [2] it was over 100 µM; at Glutamate NMDA receptor, 22 µM; in assay [4] it was over 100 µM.

On to `CC(C)(C)Cc1onc(OCP(=O)(O)O)c1CC(N)C(=O)O` (stereo unspecified), for which the IC50 in assay [1] was 35 µM; in assay [2], over 100 µM; at Glutamate NMDA receptor, over 100 µM; in assay [3], over 1000 µM; in assay [4], over 100 µM.

Take `CCCC(CCC)c1onc(OCC(=O)O)c1CC(N)C(=O)O` (stereo unspecified): the IC50 is 63 µM in assay [1]; over 100 µM in assay [2]; over 100 µM on Glutamate NMDA receptor; over 1000 µM in assay [3]; over 100 µM in assay [4].

For the compound `N#Cc1cc2c(cc1[N+](=O)[O-])=NC(=O)C(=O)N=2`, the IC50 on Glutamate NMDA receptor came to 25 µM; in assay [4], 1.5 µM.

Take `NC(Cc1cc(OCC(=O)O)no1)C(=O)O` (stereo unspecified): the IC50 was over 100 µM in assay [1]; over 100 µM in assay [2]; over 100 µM at Glutamate NMDA receptor; over 1000 µM in assay [3]; over 100 µM in assay [4].

With `CC(C)(C)c1onc(OCP(=O)(O)O)c1CC(N)C(=O)O` (stereo unspecified), the IC50 (at Glutamate NMDA receptor; in assay [4]) was over 100 µM each time.

As for `CC(C)(C)c1onc(OCC(=O)O)c1CC(N)C(=O)O` (stereo unspecified), the IC50 in assay [1] was 12 µM; in assay [2] it was 33 µM; on Glutamate NMDA receptor it was over 100 µM; in assay [3], 150 µM; in assay [4], over 100 µM.

`CCCCc1onc(OCC(=O)O)c1CC(N)C(=O)O` (stereo unspecified): the IC50 in assay [1] is 87 µM; in assay [2], over 100 µM; on Glutamate NMDA receptor it was over 100 µM; in assay [3] it was over 1000 µM; in assay [4], over 100 µM.

As for `Cc1onc(OCP(=O)(O)O)c1CC(N)C(=O)O` (stereo unspecified), the IC50 in assay [1] is 6.9 µM; in assay [2] it was 31 µM; on Glutamate NMDA receptor, over 100 µM; in assay [3], 60 µM; in assay [4] it was over 100 µM.

With `Cc1onc(OCC(=O)O)c1CC(N)C(=O)O` (stereo unspecified), the figures for the IC50 (in the assay listed under Rattus norvegicus; in assay [1]) were 320 µM and 8 µM, respectively.

For the compound `NC(Cc1c(OCC(=O)O)noc1-c1cccs1)C(=O)O` (stereo unspecified), the IC50 was over 100 µM in assay [1]; over 100 µM in assay [2]; over 100 µM on Glutamate NMDA receptor; over 1000 µM in assay [3]; over 100 µM in assay [4].

As to `CCCCc1onc(OCP(=O)(O)O)c1CC(N)C(=O)O` (stereo unspecified), the IC50 in assay [1] was 18 µM; in assay [2], over 100 µM; at Glutamate NMDA receptor, over 100 µM; in assay [3] it was 140 µM; in assay [4], over 100 µM.

Take `NC(Cc1c(OCP(=O)(O)O)noc1-c1ccccc1)C(=O)O` (stereo unspecified): the IC50 in assay [1] was over 100 µM; in assay [2] it was over 100 µM; on Glutamate NMDA receptor, over 100 µM; in assay [3], over 1000 µM; in assay [4], over 100 µM.
